The text below walks through data of patent publication US20100034903A1, “SHINYLEAF YELLOWHORN EXTRACT, METHODS FOR EXTRACTION AND USES THEREOF” (priority 2006, published 2010).

One assay deals with water-load mice. Briefly: Urination frequency of water-load mice. It is filed as in vivo. To be noted: imipramine 0.01 g/kg*d × 10, gavage. The text has this:
The experimental animal strains used herein are the SPF KM mice and Wistar rats. Each rat or mouse receives gavage drug administration. Shinyleaf yellowhorn extract is the refined extract from Refining Example IV, in the form of capsules. The control drug is imipramine, which has a strong anti-depression action and a weak atropine-like action, and is often used for treatment of the depression and children enuresis. The experimental method is calculating the urination frequency of mice based on the colorable reaction taking place when the dried potassium iodide and starch are mixed with the urine.

The subject of assay [1] is excised smooth muscle of bladder of rats. Briefly: Relaxation of excised smooth muscle of bladder of rats. It is filed as cell-based. The settings on record: rat bladder smooth muscle strips; 12 experiments. The text has this:
The experimental animal strain used herein is the SPF Wistar rats. The experiment process is as follows: the rat bladder is surgically excised to prepare the strips of smooth muscle; place the smooth muscle in the thermostat nutrient solution, and then added with Shinyleaf yellowhorn extract (the refined extract from Refining Example IV, in the form of capsules) and the imipramine respectively, under the oxygen supply conditions, to observe the changes in smooth muscle.

Assay [2] relates to external bladder sphincter of the rabbit. Briefly: Bioelectricity of the extracellular electrode of the external bladder sphincter of the rabbit. The settings on record: 0.4 mg/kg, gavage. It is filed as in vivo. From the text: Experimental method: surgically implant indwelling electrode and record the changes of the external bladder sphincter of the rabbit with a physiological recorder. Administration mode: gavage administration. The adrenomimetic drug Midodrine is a selective α1 adrenoceptor agonist, commonly used for treating of stress incontinence clinically.

The subject of the next assay is dementia rat model. The assay is described as follows: Avoidance conditioned reflex of the dementia rat model with destructed cholinergic neuron and Meynert basal ganglia. It is filed as in vivo. The settings on record: 0.2 g/kg, gavage. From the text: The animal model of senile dementia is established pursuant to the method disclosed in “Experimental Alzheimer's Disease Animal Model with Destructed Cholinergic Neuron” (Pharmacological Experimental Methodology, Third Edition, […]). The kainic acid is a receptor agonist for the central exciting neurotransmitter glutamate, which has been widely used as a tool drug to establish the neurotoxicity model by the international community. Administration mode: gavage administration. The Piracetam-NEGPF [piracetam, […] acetamide, amide pyrrole ring (ketone)] is a brain metabolism nootropics that can protect and repair cranial nerve cells, promote the transformation of ADP into ATP in the brain and the synthesis of acetylcholine and prevent against the brain function injury caused by the physical and chemical factors, and is used in clinic for the treatment of the brain function disorder due to aging, cerebral vascular accident, traumatic brain injury, and CO poisoning.

In assay [3] the test system is mouse sleeping model by sodium pentobarbital. Briefly: Sleeping hours of the mouse (sodium pentobarbital sleep model). The settings on record: mice, 0.02 g/kg gavage one hour prior to sodium pentobarbital. Format: in vivo. The text has this: Establish the animal model of sleeping of the mouse by an intraperitoneal injection of sodium pentobarbital. Administer drug by gavage administration one hour prior to the injection, so as to observe the recovery time for the righting reflex of the mouse. Administration mode: gavage administration. The telucidone (meclofenoxate, or centrofenoxine) has an exciting action on central nerve and commonly used for the clinical treatment of traumatic unconscious disturbance and children enuresis.

With `CN(C)CCCN1c2ccccc2CCc2ccccc21` [Imipramine, imipramine], the Urination frequency is given as 0.9 ± 0.7 times/each in the assay on water-load mice (0.5 h), 2.9 ± 1.3 times/each with water-load mice (1.0 h), 2.6 ± 1.5 times/each in the assay with water-load mice (2.0 h) and 1.3 ± 0.8 times/each in the assay on water-load mice (3.0 h). The “Concentration of solution as smooth muscle shows complete relaxation” value in assay [1] stood at 0.15 mg/mL.
In assay [2], `COc1ccc(OC)c(C(O)CNC(=O)CN)c1` (centres unmarked) [Midodrine] gave a Frequency of 35.4 ± 11.6 times/min, a Time duration of 18.7 ± 10.3 min and a Wave amplitude of 14.9 ± 6.7 mv.
In the case of `NC(=O)CN1CCCC1=O` [Piracetam-NEGPF, piracetam], the Latency with dementia rat model (72 h post stopping of training) is 4.6 ± 0.7 s; in the assay with dementia rat model (The fifth day), 2.6 ± 0.6 s; with dementia rat model (The first day), 7.1 ± 3.3 s; in the assay with dementia rat model (The third day), 4.4 ± 1.0 s. Besides, the Positive rate in the assay with dementia rat model (72 h post stopping of training) is listed as 58.2 ± 7.4 %; with dementia rat model (The fifth day), 71.05 ± 8.2 %; in the assay on dementia rat model (The first day), 30.5 ± 12.7%; with dementia rat model (The third day), 57.6 ± 8.0 %.
For the compound `CN(C)CCOC(=O)COc1ccc(Cl)cc1` [Telucidone, meclofenoxate], the Hour of sleep in assay [3] was 61.2 ± 10.7 min.
